Drawing on ChEMBL document CHEMBL6120947, “Synthesis and Antiosteoporotic Characterization of Diselenyl Maleimides: Discovery of a Potent Agent for the Treatment of Osteoporosis by Targeting RANKL” (J Med Chem, 2024), this text covers Activity for one compound.

Data set [1] is described as follows: Toxicity in OVX-induced osteoporosis C57BL/6 mouse model assessed as body weight change at 10 mg/kg, po administered every other day for 8 weeks. In kind it is organism-based. To be noted: in vivo, 1344 h.
The next data set concerns RAW264.7. Briefly: Cytotoxicity against mouse RAW264.7 cells assessed as decrease in cell viability at 1 uM incubated for 48 hrs by MTT assay. It is filed as toxicity, cell-based. To be noted: raw264.7, 48 h. On the technique in general: Tetrazolium dyes change colour on reduction, which living cells bring about.

In the case of `O=C1C([Se]c2ccccc2)=C([Se]c2ccccc2)C(=O)N1Cc1ccccc1`, the Activity result (in data set [1]; in the data set on RAW264.7) was “Non-toxic” each time.
